Laboratory results: patent EP2030621A1, “Novel substituted pyrimidines as cysteine protease inhibitors” (GLAXO GROUP LIMITED, priority 2007, dated 2009)
pIC50: −log10 of the molar value. Structures can show the parent of a compound that is named as a salt. Where two headings read alike, the source gives them in different places.

Key:
Falcipain-3 = Falcipain-3 (Plasmodium falciparum, UniProt Q8IIL0); experiment: Falcipain-3 enzymatic assay (fluorogenic peptide substrate, quenched endpoint read); format: biochemical
Description: (§1) 1 Determination of Falcipain-2, Falcipain-3, Vivapain-2, Cathepsin K Cathepsin S, Cathepsin L, and Cathepsin B proteolytic catalytic activity
(§2) Assays for Falcipain-2, Faicipain-3, and Vivapain-2 are carried out with parasitic recombinant enzymes. Cathepsins K, S, L, and B are carried out with human recombinant enzymes. Standard assay conditions for the determination of kinetic constants used a fluorogenic peptide substrate, typically H-D-VLR-AFC (Falcipain-2, Falcipain-3, Vivapain-2), Z-FR-AFC (Cathepsin K, L, B), or KQKLR-AMC (Cathepsin S) and are determined in 100 mM sodium acetate, pH 5.5, containing 10 mM DTT and 0.5 mM CHAPS (Falcipain-2, Falcipain-3, Vivapain-2), and 100 mM sodium acetate, pH 5.5, containing 5 mM L-cysteine, 1mM CHAPS and 5mM EDTA (Cathepsin K, L, B), or 50mM MES, pH 6.5, containing 0.5mM CHAPS, 10mM L-CYS, 5mM EDTA (Cathepsin S). Stock substrate solutions are prepared at 20 mM in DMSO. The activity assays contained 30 uM substrate (Falcipain-2, Falcipain-3, Vivapain-2), 20 uM substrate (Cathepsin K), 25uM substrate (Cathepsin B), 5uM substrate (Cathepsin L), and 30uM substrate (Cathepsin S). All assays contained 1% DMSO. […] All assays are conducted at ambient temperature as end point assays being quenched after 60 minutes with the exception of Cathepsin S at 90 minutes, with 16.6 uM E-64 in 1% DMSO. Product formation (AFC or AMC) is determined from fluorescence (excitation at 405nm; emission at 530nm, AFC, or excitation at 360 nm; emission at 460 nm, AMC) monitored with a LJL Aquest (Molecular Devices) fluorescent plate reader. In the case of kinetic reads (used in mechanism of action studies), the reaction is not quenched but is read in the plate reader every 3 minutes for approximately 90 minutes. In addition, the mechanism of action studies for Falcipain-2 utilize Z-LR-AMC as the substrate. Product formation is determined from the fluorescence of AMC, measured with a LJL Acquest (Molecular Devices) fluorescent plate reader (excitation at 360nm; emission at 460nm).
(§3) Potential inhibitors are evaluated using the quenched read (endpoint) method. Assays are carried out in the presence of variable concentrations of test compound. Reactions are initiated by addition of enzyme and substrate to wells containing inhibitor stamped in 100% DMSO. For endpoint assays, the reaction is quenched with the addition of E64. Dose response data is fit to an IC50 curve with preset fitting tools according to equation 1: y = a + (b-a)/(1 + (10^x /10^c ())^d ) [formula] where y is the response at a particular inhibitor concentration x, a is the minimum response value, b is the maximum response value, c is the IC50, and d is the slope of the IC50 curve. […]. For a more direct measurement of the KI and the binding mechanism, we performed mechanism of action studies that included a titration of substrate and inhibitor with a kinetic read. […]

[1] = tested on: Plasmodium falciparum parasite; experiment: Whole cell assay: whole cell activity against the parasite; format: cell-based; details: Plasmodium falciparum
Falcipain-2 = Falcipain-2 (Plasmodium falciparum, UniProt Q8I6U4); experiment: Falcipain-2 enzymatic assay (fluorogenic peptide substrate, quenched endpoint read); format: biochemical
Description: as §1, §2, §3

[2] = parasitic recombinant enzyme, 30 uM H-D-VLR-AFC, pH 5.5, quenched after 60 minutes, read-out: Falcipain-2 (IC50)
[3] = parasitic recombinant enzyme, 30 uM H-D-VLR-AFC, pH 5.5, quenched after 60 minutes, read-out: Falcipain-3 (IC50)

Sequence of Falcipain-2 (Q8I6U4 244-484): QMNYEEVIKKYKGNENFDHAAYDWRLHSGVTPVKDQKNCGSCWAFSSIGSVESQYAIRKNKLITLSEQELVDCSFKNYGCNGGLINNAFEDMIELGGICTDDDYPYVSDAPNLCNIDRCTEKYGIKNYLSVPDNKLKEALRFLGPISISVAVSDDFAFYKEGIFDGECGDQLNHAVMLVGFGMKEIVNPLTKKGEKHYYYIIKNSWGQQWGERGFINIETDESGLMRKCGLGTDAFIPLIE
Sequence of Falcipain-3 (Q8IIL0 243-492): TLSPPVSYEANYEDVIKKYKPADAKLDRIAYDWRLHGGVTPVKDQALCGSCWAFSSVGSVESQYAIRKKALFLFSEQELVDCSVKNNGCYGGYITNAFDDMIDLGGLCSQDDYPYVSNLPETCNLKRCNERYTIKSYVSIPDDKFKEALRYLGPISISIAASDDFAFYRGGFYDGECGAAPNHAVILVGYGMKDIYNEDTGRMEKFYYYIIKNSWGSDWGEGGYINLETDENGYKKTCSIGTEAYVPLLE

Row | pIC50 (Falcipain-2; [2]) | pIC50 (Falcipain-3; [3]) | SMILES | pIC50 (Falcipain-3) | pIC50 [1] | pIC50 (Falcipain-2)
1 |  |  | CN1CCN(C2CCN(Cc3ccc(C(=O)NN(c4nc(C#N)ncc4Br)C4CCOCC4)cc3)CC2)CC1 [Example 29, N'-(5-Bromo-2-cyano-4-pyrimidinyl)-4-{[4-(4-methyl-1-piperazinyl)-1-piperidinyl]methyl}-N'-(tetrahydro-2H-pyran-4-yl)benzohydrazide trifluoroacetate] | 6.82 to 7.82 | 6.82 to 7.82 | 
2 |  |  | CN1CCN(C(=O)C2CCN(Cc3ccc(C(=O)NN(c4nc(C#N)ncc4Cl)C4CCOCC4)cc3)CC2)CC1 [Example 36, N'-(5-Chloro-2-cyano-4-pyrimidinyl)-4-({4-[(4-methyl-1-piperazinyl)carbonyl]-1-piperidinyl}methyl)-N'-(tetrahydro-2H-pyran-4-yl)henzohydrazide trifluoroacetate] |  | 6.82 to 7.82 | 8.60 to 9.00
3 | > 9.00 | 6.82 to 7.82 | CC(=O)N1CCC(N(NC(=O)c2ccc(CN3CCN(C)CC3)cc2)c2nc(C#N)ncc2Br)CC1 [Example 37, N'-(1-acetyl-4-piperidinyl)-N'-(5-bromo-2-cyano-4-pyrimidinyl)-4-[(4-methyl-1-piperazinyl)methyl]benzohydrazide trifluoroacetate] |  | 6.82 to 7.82 | 
4 |  |  | CC(=O)N1CCC(N(NC(=O)c2ccc(CN3CCC(N4CCN(C)CC4)CC3)cc2)c2nc(C#N)ncc2Br)CC1 [Example 38, N'-(1-acetyl-4-piperidinyl)-N'-(5-bromo-2-cyano-4-pyrimidinyl)-4-{[4-(4-methyl-1-piperazinyl)-1-piperidinyl]methyl}benzohydrazide trifluoroacetate] | 6.82 to 7.82 | 6.60 to 6.82 | 
5 |  |  | CN1CCN(Cc2ccc(C(=O)NN(c3nc(C#N)ncc3Br)C3CCOCC3)cc2)CC1 [Example 42, N'-(5-bromo-2-cyano-4-pyrimidinyl)-4-[(4-methyl-1-piperazinyl)methyl]-N'-(tetrahydro-2H-pyran-4-yl)benzohydrazide trifluoroacetate] |  | 6.82 to 7.82 | 8.60 to 9.00
6 |  |  | CN1CCN(Cc2ccc(C(=O)NN(c3nc(C#N)ncc3Cl)C3CCCC3)cc2)CC1 [Example 50, N'-(5-chloro-2-cyano-4-pyrimidinyl)-N'-cyclopentyl-4-[(4-methyl-1-piperazinyl)methyl]benzohydrazide trifluoroacetate] |  | 6.82 to 7.82 | 8.60 to 9.00
7 | > 9.00 | 7.82 to 8.60 | CC(C)CCN(C)Cc1ccc(C(=O)NN(c2nc(C#N)ncc2Cl)C2CCCC2)cc1 [Example 63, N'-(5-chloro-2-cyano-4-pyrimidinyl)-N'-cyclopentyl-4-{[methyl(3-methylbutyl)amino]methyl}benzohydrazide trifluoroacetate] |  | 7.82 to 8.60 | 
